From US7919465B2, “Peptide mimotopes that inhibits interaction between a platelet receptor and a platelet receptor ligand” (priority 2006, dated 2011)
Read-outs that look alike come from different tables or passages of the source. Non-standard residues stand in square brackets, D forms with d. No end group written: not given here.

Tests used:
[1] = target: T1, GPIb-vWf interaction (Homo sapiens, UniProt P07359); test: Flow cytometry inhibition of vWf binding to ristocetin-activated platelets in PRP; format: cell-based
T1 construct: Platelet rich plasma (PRP) was prepared from whole blood by centrifugation; endogenous in cells
Description: (§1) In order to prepare human platelets for testing, as approved by Canadian Blood Services' Ethics Board, samples of whole blood were drawn from healthy, consenting donors into 2.7-4.0 mL citrated tubes (BD, USA). Platelet rich plasma (PRP) was prepared from whole blood by centrifugation in a Beckman (CS-6R) bench-top centrifuge (r=203.57 mm, Beckman Coulter, USA) 164×g for 15 minutes. PRP from a number of unrelated donors were evaluated on an Adiva 120 Hematology Analyzer (Bayer, Canada) and standardized to a concentration of 300×10^9 platelets/L in HEPES buffered saline (HBS, 10 mM HEPES, 150 mM NaCl, pH 7.4).
Thereafter the samples were diluted and fixed with 1.0 mL 0.2% formolsaline (0.2% formaldehyde, 150 mM NaCl, pH 7.20) before analysis on a FACS Canto flow cytometer (BD, USA).
The effect of native HPG, free peptides, and peptide-conjugated HPG on activated platelets using modifications of the above assay systems was also examined. Platelets were treated with either 5 μL 4.2 mg/mL ristocetin (Chrono-Log, USA) or 100 U thrombin (T6884, Sigma-Aldrich, Canada) with 5 μL GPRP fibrin inhibitor (G5779, Sigma-Aldrich, Canada) dissolved in HBS. […] Controls included incubation with mouse IgG-FITC/IgG-PE (Beckman-Coulter, Canada) of the same isotype, and/or omitting the conjugate.

[2] = tested on: platelets; test: Aggregometry, % aggregation on activation; format: cell-based, human; set-up: concentration or dose not given beside the values; conditions: ristocetin activation
Description: as §1
(§2) The effect of native HPG, free peptides, and peptide-conjugated HPG on activated platelets using modifications of the above assay systems was also examined. Platelets were treated with either 5 μL 4.2 mg/mL ristocetin (Chrono-Log, USA) or 100 U thrombin (T6884, Sigma-Aldrich, Canada) with 5 μL GPRP fibrin inhibitor (G5779, Sigma-Aldrich, Canada) dissolved in HBS. This was done to determine whether the peptides and the peptide-conjugates can mitigate vWf and thrombin mediated platelet effects. Controls included incubation with mouse IgG-FITC/IgG-PE (Beckman-Coulter, Canada) of the same isotype, and/or omitting the conjugate. As a result, native HPG, free peptides, and peptide-conjugated HPG neither did they increase vWf binding to resting platelets (Table 5) or they could trigger platelet activation.
The inhibition of platelet agglutination by vWf was observed both by light microscopy and lumiaggregometry (Table 5). No clumping was seen when resting platelets were incubated with free peptides, native HPG, or peptide-conjugated HPG.

[3] = tested on: CD62/P-selectin on platelet surfaces; test: Flow cytometry of surface CD62 expression on platelets; format: cell-based, human; conditions: for Surface CD62 Expression, Activated Platelets: thrombin-activated platelets
Description: as §1
(§3) 40 μL aliquots of HBS were mixed with 5 μL PRP and 5 μL of the material to be tested: 500 kDa native HPG; free peptides; or peptide-conjugated HPG at 1.0×10^−3 M to 1.0×10^−9 M. After 40 minutes of incubation at ambient temperature, 5 μL 0.01 mg/mL FITC-conjugated polyclonal sheep anti-human vWf IgG (Abcam, USA) or 5 μL of 2 mg/mL PE-conjugated monoclonal mouse anti-human CD62 IgG (Beckman-Coulter, Canada) was added and incubation was continued in the dark for 30 min. Thereafter the samples were diluted and fixed with 1.0 mL 0.2% formolsaline (0.2% formaldehyde, 150 mM NaCl, pH 7.20) before analysis on a FACS Canto flow cytometer (BD, USA).
as §2, with “activation. […]” for “activation.”

[4] = tested on: vWf binding to resting platelets; test: Flow cytometry of vWf binding to resting platelets; format: cell-based, human
Description: as §1, §3, §2

[5] = target: purified vWf (Homo sapiens, UniProt P04275); test: Random D-peptide array on cellulose membrane probed with purified vWf; format: binding; conditions: detected by HRP anti-human-vWf IgG
Description: Random D-amino acid peptides (15 mer) were synthesized and probed with vWf to detect random sequences capable of binding vWf.
Random peptide arrays of 1120 peptides made of D-amino acids were synthesized on a cellulose membrane using an AutoSpot ASP 222 peptide synthesizer (ABiMED, Langenfeld, Germany). Resulting replicate libraries of 15-mer sequences were probed for vWf binding function by exposing the membranes to purified vWf after blocking with skim milk to prevent non-specific binding of horseradish peroxidase labelled goat anti-human-vWf IgG. The chemiluminescent substrate from the Amersham Pharmacia ECL kit detected positive spots that were recorded on photographic film. Negative controls consisted of probing the membranes with the antibodies without prior exposure of the membrane to purified vWf.
(§4) Peptides on random 15-mer peptide arrays that were built of D-amino acids were selected on the basis of their ability to bind to vWf. Only four positive sequences were identified: D-pep1—[…] (SEQ ID NO:4); D-pep2—[…] (SEQ ID NO:5); D-pep3—[…] (SEQ ID NO:6); and D-pep4—[…] (SEQ ID NO:7). D-pep2 (SEQ ID NO:5), D-pep3 (SEQ ID NO:6) and D-pep4 (SEQ ID NO:7) were synthesized for laboratory experimentation. D-pep3 (SEQ ID NO:6), 10 mg, was synthesized by UBC's Peptide Proteomic Centre and was solubilized in Hepes-saline buffer, pH 7.4 and used at 0.1-0.5 mg/mL. Fresh washed platelets ([…]) in Hepes buffer were added and agglutination was initiated by 1.25 mg/mL ristocetin (Sigma). Agglutination times and levels were monitored both microscopically and on an aggregometer (ChronoLog) as described by the manufacturer.

[6] = tested on: GPIb-vWf-mediated platelet agglutination; test: Inhibition of ristocetin-mediated agglutination of washed platelets (microscopy, aggregometer); format: cell-based, human; conditions: for % agglutination (aggregometry): at 10 minutes, washed platelets, ristocetin
Description: as §4

[7] = expressed as peptide concentration
[8] = inhibition of platelet-vWf binding, molar concentration of peptide or conjugate
[9] = inhibition of platelet-vWf binding, molar concentration of peptide or conjugate, read-out: Ic50

| Substance | Aggregometry % Aggregation on Activation [2] [%] | Surface CD62 Expression, Resting Platelets [3] | Surface CD62 Expression, Activated Platelets [3] | vWf Binding, Resting Platelets [4] | Peptide Concentration at Ic50 (M) [1, 7] | Ic50 (M) [1, 8] | vWf binding on random 15-mer D-peptide array [5] | further results |
| --- | --- | --- | --- | --- | --- | --- | --- | --- |
| CGGGGGGRDKLGIYAHS [LR-pep] | 5 ± 5 | 19 ± 2 | 70 ± 5″ | 25 ± 12′ |  |  |  | IC50 [1]: 34 µM |
| D10: HPG 500 kDa conjugate with about 10 D-peptides per HPG molecule ([dC]GGGGGG[dR][dD][dK][dL]G[dI][dY][dA][dH][dS]; also: coupled through vinyl sulfone to 500 kDa hyperbranched polyglycerol (HPG), about 10 peptides per HPG) | 82 ± 5 | 14 ± 7 | 70 ± 6″ | 24 ± 2′ | No activity | No activity |  |  |
| D100: HPG 500 kDa conjugate with about 100 D-peptides per HPG molecule ([dC]GGGGGG[dR][dD][dK][dL]G[dI][dY][dA][dH][dS]; also: coupled through vinyl sulfone to 500 kDa hyperbranched polyglycerol (HPG), about 100 peptides per HPG) | 73 ± 5 | 18 ± 1 | 72 ± 1″ | 26 ± 3′ | No activity | No activity |  |  |
| D-CGGGGGGRDKLGIYAHS [D-pep] | 80 ± 5 | 18 ± 2 | 68 ± 10″ | 14 ± 8′ | No activity | No activity |  |  |
| D-CGGGGGGRDKLGIYAHS [DR-pep] | 78 ± 5 | 27 ± 18 | 72 ± 3″ | 28 ± 3′ | No activity | No activity |  |  |
| DSCPRDWDNNFLFFE ([dD][dS][dC][dP][dR][dD][dW][dD][dN][dN][dF][dL][dF][dF][dE]) [D-pep4] |  |  |  |  |  |  | positive |  |
| L10: HPG 500 kDa conjugate with about 10 L-peptides per HPG molecule (CGGGGGGSHAYIGLKDR; also: conjugated to HPG 500 kDa, about 10 L-peptides per HPG molecule, site not given here) |  | 17 ± 1 | 73 ± 5″ | 22 ± 5′ |  |  |  | inhibition of vWf binding to platelets (in words) [1]: effective inhibitors; IC50 ([1]; expressed as peptide concentration, read-out: Peptide Concentration at Ic50): 67 µM; IC50 [1, 9]: 6.7 µM |
| LR10: HPG conjugate with 10 L-retro peptides per HPG molecule (CGGGGGGRDKLGIYAHS; also: conjugated to HPG, 10 L-retro peptides per HPG molecule, site not given here) |  | 17 ± 2 | 72 ± 4″ | 24 ± 2′ |  |  |  | IC50 [1, 9]: 4.1 µM |
| LR100: HPG 500 kDa conjugate with about 100 L-retro peptides per HPG molecule (CGGGGGGRDKLGIYAHS; also: conjugated to HPG 500 kDa, about 100 L-retro peptides per HPG molecule, site not given here) |  | 18 ± 1 | 73 ± 2″ | 22 ± 2′ |  |  |  | inhibition of vWf binding to platelets (in words) [1]: effective inhibitors; IC50 [1, 9]: 0.49 µM |
| RSARMQVCWNAFKNR ([dR][dS][dA][dR][dM][dQ][dV][dC][dW][dN][dA][dF][dK][dN][dR]) [D-pep3] |  |  |  |  |  |  | positive | % agglutination (aggregometry) ([6]; 0.1 mg/mL): 69%; % agglutination (aggregometry) ([6]; 0.25 mg/mL): 28%; % agglutination (aggregometry) ([6]; 0.5 mg/mL): 13%; ristocetin-mediated platelet agglutination by microscopy ([6]; 100-fold excess of peptide based on plasma vWf content, controls agglutinated within 5 minutes): prevented visible agglutination at 20 minutes |
| VSRQNGKQYWAIKEG ([dV][dS][dR][dQ][dN]G[dK][dQ][dY][dW][dA][dI][dK][dE]G) [D-pep1] |  |  |  |  |  |  | positive |  |
| WQNEGTHVLSRCYEC ([dW][dQ][dN][dE]G[dT][dH][dV][dL][dS][dR][dC][dY][dE][dC]; cysteine pairing not given here) [D-pep2] |  |  |  |  |  |  | positive |  |
| bovine serum albumin [reference compound] |  |  |  |  |  |  |  | % agglutination (aggregometry) ([6]; 0.5 mg/mL): 55% |
